These results are taken from ChEMBL document CHEMBL1201862, “PubChem BioAssay data set” (2004).

Activity calls are given as the source filed them.

In experiment [1] the target is Cytochrome P450 3A4 (Homo sapiens, UniProt P08684).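 Also: CYP3A4 tested as one member of a cytochrome P450 panel screen.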
Experiment [2] has as its target 26S proteasome non-ATPase regulatory subunit 14 (Homo sapiens, UniProt O00487). In words: inhibition of proteasome subunit RPN11 – biochemical, fluorescence polarization, uHTS hits, confirmation (AID 602368). The class given is functional.
Experiment [3] addresses Prothrombin (Bos taurus, UniProt P00735). The experiment can be described thus: thrombin inhibition, dose response, biochemical, fluorescence polarization, uHTS hits (AID 602369). In kind it is functional.
Experiment [4] concerns the target Cytochrome P450 2C9 (Homo sapiens, UniProt P11712).
The target of experiment [5] is Cytochrome P450 2C19 (Homo sapiens, UniProt P33261). In words: Cytochrome panel assay with activity outcomes. Panel member name: p450-cyp2c19 Compounds with AC50 equal or less than 10 uM are considered active. The class given is functional. Conditions: read-out: AC50.
Experiment [6] addresses 72 kDa type IV collagenase (Homo sapiens, UniProt P08253). The experiment can be described thus: Dose Response validation of uHTS RPN11 inhibitor hits using a MMP-2 Fluorescence assay. The class given is functional.
The target of experiment [7] is T1, Beta-lactamase (Pseudomonas aeruginosa, UniProt Q79MP6). The experiment can be described thus: […] counterscreen for selective VIM-2 inhibitors: dose response biochemical high throughput screening assay to identify inhibitors of IMP-1 metallo-beta-lactamase. A general note: The purpose of a counterscreen is to sort out artefacts and off-target activity.

Experiment [8] concerns the target T1, Beta-lactamase. The experiment can be described thus: IMP-1 metallo-beta-lactamase inhibitors, dose response, selectivity assay for VIM-2 inhibitor project, biochemical, epi-absorbance (AID 1920).
Experiment [9] deals with Beta-lactamase (Salmonella choleraesuis (strain SC-B67), UniProt Q5J463). The experiment can be described thus: Epi-absorbance-based counterscreen for selective VIM-2 inhibitors: dose response biochemical high throughput screening assay to identify inhibitors of TEM-1 serine-beta-lactamase.
Experiment [10] addresses T2, Probable nicotinate-nucleotide adenylyltransferase (Staphylococcus aureus (strain N315), UniProt P65502). In kind it is functional, Staphylococcus aureus subsp. aureus N315. The conditions noted are these: read-out: IC50_Mean.
In experiment [11] the target is T2, Probable nicotinate-nucleotide adenylyltransferase. In kind it is functional, Staphylococcus aureus subsp. aureus N315.
Experiment [12] addresses Induced myeloid leukemia cell differentiation protein Mcl-1 (Homo sapiens, UniProt Q07820). The class given is functional.
Experiment [13] addresses T3, Sentrin-specific protease 7 (Homo sapiens, UniProt Q9BQF6).
T3 sequence (Q9BQF6 whole entry): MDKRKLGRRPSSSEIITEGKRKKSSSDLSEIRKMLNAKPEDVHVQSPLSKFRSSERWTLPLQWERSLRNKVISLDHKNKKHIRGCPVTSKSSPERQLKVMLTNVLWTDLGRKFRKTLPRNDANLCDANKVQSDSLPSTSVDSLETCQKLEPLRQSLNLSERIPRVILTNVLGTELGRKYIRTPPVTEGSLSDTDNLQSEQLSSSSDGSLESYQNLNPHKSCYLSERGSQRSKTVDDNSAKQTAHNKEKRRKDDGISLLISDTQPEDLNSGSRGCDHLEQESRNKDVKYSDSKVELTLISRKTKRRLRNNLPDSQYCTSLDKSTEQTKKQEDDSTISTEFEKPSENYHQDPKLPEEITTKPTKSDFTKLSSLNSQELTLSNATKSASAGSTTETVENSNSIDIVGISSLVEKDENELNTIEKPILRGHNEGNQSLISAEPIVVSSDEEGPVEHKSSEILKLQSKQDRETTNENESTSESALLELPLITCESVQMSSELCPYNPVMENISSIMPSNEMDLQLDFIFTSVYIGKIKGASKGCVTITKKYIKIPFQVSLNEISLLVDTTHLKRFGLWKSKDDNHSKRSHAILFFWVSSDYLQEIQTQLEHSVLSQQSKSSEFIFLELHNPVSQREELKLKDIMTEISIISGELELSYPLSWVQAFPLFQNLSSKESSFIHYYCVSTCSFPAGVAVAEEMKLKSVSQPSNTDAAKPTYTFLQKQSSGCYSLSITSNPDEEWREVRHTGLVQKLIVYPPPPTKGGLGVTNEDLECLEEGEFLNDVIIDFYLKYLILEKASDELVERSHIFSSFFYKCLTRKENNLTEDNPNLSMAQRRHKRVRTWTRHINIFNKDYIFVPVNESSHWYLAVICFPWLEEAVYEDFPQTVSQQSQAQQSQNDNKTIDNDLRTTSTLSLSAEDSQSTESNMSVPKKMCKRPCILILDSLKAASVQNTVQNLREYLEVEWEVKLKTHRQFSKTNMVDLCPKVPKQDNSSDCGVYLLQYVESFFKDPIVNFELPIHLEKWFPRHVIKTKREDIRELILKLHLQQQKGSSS
The class given is functional.

Experiment [14] concerns the target T4, Sentrin-specific protease 6 (Homo sapiens, UniProt Q9GZR1).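 Also: Luminescence-based dose-response confirmatory assay of SENP6 inhibition, following up an ultra-high-throughput screen.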
T4 sequence (Q9GZR1 whole entry): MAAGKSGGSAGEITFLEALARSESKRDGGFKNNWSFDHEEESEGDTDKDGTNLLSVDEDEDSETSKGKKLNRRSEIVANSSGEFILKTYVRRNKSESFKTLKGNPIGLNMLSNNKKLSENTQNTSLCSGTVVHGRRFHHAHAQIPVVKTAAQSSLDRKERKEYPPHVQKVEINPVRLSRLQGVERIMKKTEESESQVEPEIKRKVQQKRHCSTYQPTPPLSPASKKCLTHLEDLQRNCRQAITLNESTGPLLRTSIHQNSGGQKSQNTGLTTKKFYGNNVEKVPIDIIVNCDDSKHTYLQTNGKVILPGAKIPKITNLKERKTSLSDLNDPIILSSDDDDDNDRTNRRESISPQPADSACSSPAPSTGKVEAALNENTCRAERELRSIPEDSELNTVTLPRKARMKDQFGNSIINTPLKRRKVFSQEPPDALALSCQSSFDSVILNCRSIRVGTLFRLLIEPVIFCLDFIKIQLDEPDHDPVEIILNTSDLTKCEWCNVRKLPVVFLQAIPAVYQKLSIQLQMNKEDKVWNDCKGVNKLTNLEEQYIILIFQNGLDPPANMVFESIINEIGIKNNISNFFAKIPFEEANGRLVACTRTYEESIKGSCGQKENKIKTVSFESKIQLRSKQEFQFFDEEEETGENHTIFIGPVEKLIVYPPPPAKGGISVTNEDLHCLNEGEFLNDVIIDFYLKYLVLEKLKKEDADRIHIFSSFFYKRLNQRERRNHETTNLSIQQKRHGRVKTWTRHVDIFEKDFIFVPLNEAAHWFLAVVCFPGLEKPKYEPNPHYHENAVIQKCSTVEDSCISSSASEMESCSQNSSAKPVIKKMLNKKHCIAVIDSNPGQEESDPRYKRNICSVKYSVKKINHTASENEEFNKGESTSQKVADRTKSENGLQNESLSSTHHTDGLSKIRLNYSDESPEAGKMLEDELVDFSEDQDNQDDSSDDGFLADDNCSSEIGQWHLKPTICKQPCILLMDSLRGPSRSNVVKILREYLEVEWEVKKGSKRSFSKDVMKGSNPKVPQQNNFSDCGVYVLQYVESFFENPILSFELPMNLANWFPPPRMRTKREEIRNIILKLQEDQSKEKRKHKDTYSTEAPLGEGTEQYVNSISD
In kind it is functional.

Experiment [15] addresses T5, Sentrin-specific protease 8 (Homo sapiens, UniProt Q96LD8).
T5 sequence (Q96LD8 whole entry): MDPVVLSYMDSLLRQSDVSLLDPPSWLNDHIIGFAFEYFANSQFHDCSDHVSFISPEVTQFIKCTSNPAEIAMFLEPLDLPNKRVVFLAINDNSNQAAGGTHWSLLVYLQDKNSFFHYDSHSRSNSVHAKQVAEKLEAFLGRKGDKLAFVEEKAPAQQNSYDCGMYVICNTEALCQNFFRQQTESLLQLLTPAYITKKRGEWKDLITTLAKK
In kind it is functional.

Experiment [16] has as its target T6, Caspase-3 (Homo sapiens, UniProt P42574).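 Also: Dose-response selectivity test against caspase-3 for candidate inhibitors of sentrin-specific proteases (SENPs).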
T6 sequence (P42574 whole entry): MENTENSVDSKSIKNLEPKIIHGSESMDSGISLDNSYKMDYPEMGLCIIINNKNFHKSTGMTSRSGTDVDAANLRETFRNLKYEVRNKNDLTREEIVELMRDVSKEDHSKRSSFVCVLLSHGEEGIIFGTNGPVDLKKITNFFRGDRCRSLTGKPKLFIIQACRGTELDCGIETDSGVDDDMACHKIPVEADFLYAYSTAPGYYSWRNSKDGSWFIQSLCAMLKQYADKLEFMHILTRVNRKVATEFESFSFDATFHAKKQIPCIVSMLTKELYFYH
In kind it is functional.

The target in experiment [17] is Protein Wnt-3a (Mus musculus, UniProt P27467). In words: Wnt3a-driven reporter signaling inhibition, dose response, selectivity assay for Gli-SUFU antagonist project, Wnt-LIGHT cells, luminescence (AID 651570).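 Also: Wnt-LIGHT reporter cells stimulated with conditioned medium from Wnt3a-producing cells.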 In kind it is functional. Conditions: read-out: IC50_Mean.
Experiment [18] is described as follows: control 3'UTR Renilla luciferase suppression, dose response, counter-screen for Shn3 inhibitor project, cell-based, Clone20-Shn3RL, cherry-picked (AID 624133). The class given is functional.
A short description of experiment [19]: Shn3 3'UTR reporter inhibitors, dose response, cell-based, Clone20 osteoblasts, firefly luciferase, cherry-picked (AID 624132).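 Also: firefly luciferase luminescence from reporter carrying the Shn3 3'UTR in osteoblasts.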 In kind it is functional.
Experiment [20] in a line: HepG2 cell cytotoxicity, dose response, cytotoxicity control for Shn3 inhibitor project, CellTiter-Glo, cherry-picked (AID 624134). The class given is functional, cell-based.
In experiment [21] the target is T7, Adenosylmethionine-8-amino-7-oxononanoate aminotransferase (Mycobacterium tuberculosis, UniProt P9WQ81).
T7 sequence (P9WQ81 whole entry): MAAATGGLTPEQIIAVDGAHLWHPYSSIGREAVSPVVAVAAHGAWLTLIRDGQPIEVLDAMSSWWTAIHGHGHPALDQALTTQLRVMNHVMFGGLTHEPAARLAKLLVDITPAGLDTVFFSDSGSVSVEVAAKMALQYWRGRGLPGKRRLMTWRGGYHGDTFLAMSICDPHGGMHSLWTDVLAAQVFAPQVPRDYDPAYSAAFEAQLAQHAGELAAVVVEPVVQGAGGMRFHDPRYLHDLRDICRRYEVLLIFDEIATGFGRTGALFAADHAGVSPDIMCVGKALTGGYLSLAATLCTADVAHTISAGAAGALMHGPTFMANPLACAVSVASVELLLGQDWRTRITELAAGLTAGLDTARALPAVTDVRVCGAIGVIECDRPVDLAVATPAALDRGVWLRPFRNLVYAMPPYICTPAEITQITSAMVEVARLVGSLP
In words: Mycobacterium tuberculosis BioA enzyme inhibitor Measured in Biochemical System Using Plate Reader - 2163-02_Inhibitor_Dose_CherryPick_Activity. In kind it is functional, Mycobacterium tuberculosis UT205.

The nature of experiment [22]: HEp-2 cell cytotoxicity, dose response, cytotoxicity control for RSV inhibitor project, HTS (AID 2410). In kind it is functional. Conditions: human respiratory syncytial virus.

Sequence of 26S proteasome non-ATPase regulatory subunit 14 (O00487 whole entry): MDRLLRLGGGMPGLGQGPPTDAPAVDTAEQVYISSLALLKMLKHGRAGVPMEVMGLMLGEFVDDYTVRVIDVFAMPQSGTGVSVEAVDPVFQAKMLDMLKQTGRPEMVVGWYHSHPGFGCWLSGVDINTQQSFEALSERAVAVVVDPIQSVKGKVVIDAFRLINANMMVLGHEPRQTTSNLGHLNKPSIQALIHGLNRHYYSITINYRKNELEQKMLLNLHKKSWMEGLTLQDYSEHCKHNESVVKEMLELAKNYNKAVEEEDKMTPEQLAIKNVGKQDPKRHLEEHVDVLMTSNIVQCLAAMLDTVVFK
Sequence of 72 kDa type IV collagenase (P08253 whole entry): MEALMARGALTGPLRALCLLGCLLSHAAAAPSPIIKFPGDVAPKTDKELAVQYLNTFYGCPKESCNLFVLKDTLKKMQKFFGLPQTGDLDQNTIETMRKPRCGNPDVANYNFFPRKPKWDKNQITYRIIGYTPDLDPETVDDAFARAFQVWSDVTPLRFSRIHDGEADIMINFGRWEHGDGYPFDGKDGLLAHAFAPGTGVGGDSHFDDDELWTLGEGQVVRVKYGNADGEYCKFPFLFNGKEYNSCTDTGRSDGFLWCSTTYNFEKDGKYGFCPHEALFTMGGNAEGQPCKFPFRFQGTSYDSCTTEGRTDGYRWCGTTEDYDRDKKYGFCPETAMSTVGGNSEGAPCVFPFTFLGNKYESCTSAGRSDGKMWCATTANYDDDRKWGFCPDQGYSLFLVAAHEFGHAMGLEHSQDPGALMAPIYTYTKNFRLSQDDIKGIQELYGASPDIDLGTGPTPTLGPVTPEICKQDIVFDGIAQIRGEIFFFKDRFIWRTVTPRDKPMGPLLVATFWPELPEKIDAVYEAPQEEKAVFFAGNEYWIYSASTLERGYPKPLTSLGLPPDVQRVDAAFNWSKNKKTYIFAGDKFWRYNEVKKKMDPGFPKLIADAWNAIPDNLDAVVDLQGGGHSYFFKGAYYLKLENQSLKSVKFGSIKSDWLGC
T2 sequence (P65502 whole entry): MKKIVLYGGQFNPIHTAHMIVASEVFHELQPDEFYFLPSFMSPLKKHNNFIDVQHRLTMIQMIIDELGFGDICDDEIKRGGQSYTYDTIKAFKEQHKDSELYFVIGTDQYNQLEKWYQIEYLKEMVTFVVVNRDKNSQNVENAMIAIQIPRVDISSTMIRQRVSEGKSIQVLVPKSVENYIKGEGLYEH
Sequence of Protein Wnt-3a (P27467 whole entry): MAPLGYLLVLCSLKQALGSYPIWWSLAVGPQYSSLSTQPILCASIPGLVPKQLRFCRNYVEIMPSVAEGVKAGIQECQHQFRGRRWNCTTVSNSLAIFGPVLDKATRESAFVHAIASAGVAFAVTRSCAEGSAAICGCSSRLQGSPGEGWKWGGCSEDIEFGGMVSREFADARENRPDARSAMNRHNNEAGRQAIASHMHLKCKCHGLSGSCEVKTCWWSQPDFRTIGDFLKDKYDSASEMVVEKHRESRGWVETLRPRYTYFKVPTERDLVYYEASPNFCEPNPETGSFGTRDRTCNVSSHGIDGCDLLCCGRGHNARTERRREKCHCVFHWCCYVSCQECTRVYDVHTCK
T1 sequence (Q79MP6 whole entry): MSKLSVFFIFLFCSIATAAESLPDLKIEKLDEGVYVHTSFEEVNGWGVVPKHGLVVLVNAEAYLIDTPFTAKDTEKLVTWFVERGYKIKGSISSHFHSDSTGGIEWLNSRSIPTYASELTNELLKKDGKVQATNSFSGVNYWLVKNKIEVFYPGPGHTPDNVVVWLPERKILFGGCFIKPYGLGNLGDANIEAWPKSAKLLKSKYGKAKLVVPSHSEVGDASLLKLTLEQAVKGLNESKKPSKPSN
Sequence of Beta-lactamase (Salmonella choleraesuis (strain SC-B67), UniProt Q5J463) (Q5J463 whole entry): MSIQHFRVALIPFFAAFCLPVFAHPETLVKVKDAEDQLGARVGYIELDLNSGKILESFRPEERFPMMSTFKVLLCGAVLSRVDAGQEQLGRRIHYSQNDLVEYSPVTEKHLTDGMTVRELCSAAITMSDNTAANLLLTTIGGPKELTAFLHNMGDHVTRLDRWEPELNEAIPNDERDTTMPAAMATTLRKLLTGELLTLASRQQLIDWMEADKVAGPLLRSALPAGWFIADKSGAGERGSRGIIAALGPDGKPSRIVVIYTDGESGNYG
Sequence of Induced myeloid leukemia cell differentiation protein Mcl-1 (Q07820 whole entry): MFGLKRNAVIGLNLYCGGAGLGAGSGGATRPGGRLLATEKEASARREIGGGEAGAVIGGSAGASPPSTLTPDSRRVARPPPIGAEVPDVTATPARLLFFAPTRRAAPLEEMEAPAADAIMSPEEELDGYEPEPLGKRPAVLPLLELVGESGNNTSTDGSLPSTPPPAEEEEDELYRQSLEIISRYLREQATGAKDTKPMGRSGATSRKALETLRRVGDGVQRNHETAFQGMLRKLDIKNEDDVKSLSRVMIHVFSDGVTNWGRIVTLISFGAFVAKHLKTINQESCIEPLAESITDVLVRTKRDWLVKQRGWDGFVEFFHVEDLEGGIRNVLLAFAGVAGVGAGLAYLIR
Sequence of Cytochrome P450 2C19 (P33261 whole entry): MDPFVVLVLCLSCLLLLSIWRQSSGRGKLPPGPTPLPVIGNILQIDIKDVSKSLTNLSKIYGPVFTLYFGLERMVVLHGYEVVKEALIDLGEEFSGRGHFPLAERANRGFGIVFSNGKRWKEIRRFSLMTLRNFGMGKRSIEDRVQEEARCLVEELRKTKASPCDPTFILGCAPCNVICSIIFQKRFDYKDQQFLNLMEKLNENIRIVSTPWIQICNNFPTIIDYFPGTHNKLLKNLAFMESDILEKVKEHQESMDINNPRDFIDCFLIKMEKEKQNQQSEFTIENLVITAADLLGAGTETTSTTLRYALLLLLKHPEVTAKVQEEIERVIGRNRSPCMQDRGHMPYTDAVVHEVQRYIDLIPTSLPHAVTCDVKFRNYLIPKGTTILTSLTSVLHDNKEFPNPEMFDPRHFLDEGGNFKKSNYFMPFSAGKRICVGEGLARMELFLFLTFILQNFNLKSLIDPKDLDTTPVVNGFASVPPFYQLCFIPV
Sequence of Cytochrome P450 3A4 (P08684 whole entry): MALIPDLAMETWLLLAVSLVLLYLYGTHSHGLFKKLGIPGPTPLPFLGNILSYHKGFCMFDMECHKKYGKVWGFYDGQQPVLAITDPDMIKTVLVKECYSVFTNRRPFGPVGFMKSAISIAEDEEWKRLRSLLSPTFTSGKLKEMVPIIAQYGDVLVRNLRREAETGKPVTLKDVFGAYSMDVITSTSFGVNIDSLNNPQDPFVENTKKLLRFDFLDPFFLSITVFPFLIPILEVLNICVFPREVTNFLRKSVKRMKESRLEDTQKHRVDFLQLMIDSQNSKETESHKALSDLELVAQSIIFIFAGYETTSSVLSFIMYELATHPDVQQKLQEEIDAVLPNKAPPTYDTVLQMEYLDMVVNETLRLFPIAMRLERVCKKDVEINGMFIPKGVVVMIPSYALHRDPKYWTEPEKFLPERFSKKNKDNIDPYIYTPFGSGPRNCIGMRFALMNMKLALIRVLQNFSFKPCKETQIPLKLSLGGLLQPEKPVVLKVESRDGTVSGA
Sequence of Cytochrome P450 2C9 (P11712 whole entry): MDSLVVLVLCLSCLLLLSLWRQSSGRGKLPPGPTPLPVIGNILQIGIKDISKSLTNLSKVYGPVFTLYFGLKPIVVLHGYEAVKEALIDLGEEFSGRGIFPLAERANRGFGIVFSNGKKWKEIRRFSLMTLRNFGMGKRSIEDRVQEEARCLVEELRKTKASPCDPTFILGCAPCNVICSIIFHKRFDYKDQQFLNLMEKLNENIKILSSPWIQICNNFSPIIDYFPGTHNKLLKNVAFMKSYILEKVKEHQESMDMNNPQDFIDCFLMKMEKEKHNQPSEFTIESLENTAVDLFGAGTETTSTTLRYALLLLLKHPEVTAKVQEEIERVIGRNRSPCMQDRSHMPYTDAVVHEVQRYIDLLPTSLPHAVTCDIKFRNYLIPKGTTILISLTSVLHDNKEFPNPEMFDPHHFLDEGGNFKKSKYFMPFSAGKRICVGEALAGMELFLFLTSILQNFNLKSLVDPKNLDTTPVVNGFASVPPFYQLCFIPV

As for `Cc1cc(/C=C2\SC(=S)NC2=O)c(C)n1C`, the concentration at half-maximal activity (AC50) (in general, the midpoint of the concentration-response curve, whichever way the signal moves) was 25.1 µM (inconclusive) in experiment [1], 1.26 µM (inconclusive) in experiment [4] and 39.8 µM (inconclusive) in experiment [5]. Further, the IC50 in experiment [2] is 16.5 µM (active); in [3], 19.4 µM (active); in [6] it was 15.2 µM (active).

`CSC[C@H](NC(=O)COc1cc2c(c3oc(=O)c(C)c(C)c13)CCC(C)(C)O2)C(=O)O`: the IC50 in experiment [7], in experiment [8] and in experiment [9] was > 59.6 µM (inactive) in each case.

As for `COc1ccc(C2=NN(c3nc(-c4ccccc4)c(CC(=O)O)s3)C(c3ccco3)C2)cc1` (stereo not given), the IC50 in experiment [10] is 18.5 µM (active); in experiment [11] it was 8.39 µM (active); in [12], 6.5 µM (active).

Turning to `O=C(c1ccc2c(=O)n(Cc3ccco3)c(=S)[nH]c2c1)N1CCN(Cc2ccccc2)CC1`, the IC50 in experiment [10] was 57.7 µM (active); in [11], 23.5 µM (active).

In the case of `Cc1ccc(NC(=O)C(C)SCc2nc(O)c3c4c(sc3n2)CCCC4)nc1` (stereo not given), the IC50 was 21.9 µM (active) in experiment [2], 17.2 µM (active) in experiment [3] and > 100 µM (inactive) in experiment [6].

Consider `S=c1[nH]nc(-c2ccccc2)n1CC1CCCO1` (stereo not given), for which the IC50 in experiment [7], in experiment [8] and in experiment [9] was > 59.6 µM (inactive) throughout.

Consider `CCOC(=O)c1ccc(NC(=O)c2cc3ccccc3o2)cc1`, for which the IC50 is 5.71 µM (active) in [13], 7.74 µM (active) in experiment [14], > 100 µM (inactive) in [15] and 23.7 µM (active) in [16].

Take `C=CCOc1nc2c(c(=O)n(C)c(=O)n2C)n1Cc1ccc(Cl)cc1Cl`: the IC50 in [17] is 29.7 µM (inactive). Besides, the half-maximal activity concentration (AC50) in experiment [18] is 7.4 µM (active); in [19], 2.15 µM (active).

For `CCc1nc(N)nc(N)c1-c1ccc(N(C)Cc2ccccc2)c([N+](=O)[O-])c1`, the IC50 in experiment [17] is 5.28 µM (active). Besides, the concentration at half-maximal activity (AC50) in [20] and in [19] was < 0.26 µM (active) each time.

In the case of `Cc1cccc(C(=O)NC2CCN(CC(=O)Nc3ccccc3Cl)CC2)c1`, in [21], the AC50 is 1.04 µM (active).

Turning to `CC1=CC2=NC(=O)/C(=C\c3c(C)[nH]c4ccc(C)cc34)C(=N)N2O1`, the IC50 in experiment [2] is 33.3 µM (active); in [3], 32.1 µM (active); in experiment [6], > 100 µM (inactive).

As to `Cc1ccc([N+](=O)[O-])cc1S(=O)(=O)Nc1cccc(-c2ccc(N3CCCC3)nn2)c1`, the 50% cytotoxic concentration (CC50) (as a rule, the concentration at which the toxic effect on the cells reaches its halfway point) in experiment [22] is 23 µM (active). Also, the IC50 in experiment [10] is 39.2 µM (active); in experiment [11], 17.7 µM (active).

For the compound `CCOC(=O)c1c(NC(=O)COc2ncnc3ccccc23)sc(C(C)=O)c1C`, the IC50 in [17] was 6.86 µM (active).

Turning to `O=C(C[C@@H]1C[C@@H]2c3cc(NC(=O)c4cccnc4)ccc3O[C@@H]2[C@@H](CO)O1)NCc1cccc(F)c1`, the AC50 in [21] is 5.98 µM (active).

On to `O=C(Nc1ccc2c(c1)[C@H]1C[C@@H](CC(=O)N3CCc4ccccc4C3)O[C@H](CO)[C@H]1O2)c1cccnc1`, for which, in experiment [21], the AC50 is 6.24 µM (active).
